Converted amounts (≈) assume the structure as drawn. Where a SMILES comes first, the peptide text is derived from it. Bridges are numbered along the chain shown (N, C = ends). [ ]: non-standard residue; d: D form. S5 = C=CCCC[C@](C)(N)C(=O)O
What was measured:
C. albicans 901 = test: microbe, parasite or virus in culture
Experimental: (§1) The in vitro antifungal activities of the target peptides were evaluated according to protocols from the CLSI. The broth microdilution method was used to determine the minimum inhibitory concentration (MIC) of the target peptides in 96-well plates. Fluconazole was used as a reference drug.
(§2) Clinical isolates of C. albicans SC5314, 901, 904, C. tropicalis ATCC20026 and clinical isolate 895, C. glabrata ATCC1182 and clinical isolate 896, C. krusei ATCC2340, and C. parapsilosis ATCC22010 are from the collection library in the Drug Discovery and Development Center, Naval Medical University, Shanghai, China. C. auris clinical isolates are provided by Linqi Wang (Institute of Microbiology, Chinese Academy of Sciences) and Changbin Chen (Institut Pasteur of Shanghai, Chinese Academy of Sciences). All strains were cultured in YPD (1% yeast extract, 2% peptone, and 2% glucose) liquid medium overnight at 30 °C with shaking at 220 rpm.
(§3) The MICs of chemicals against all strains were determined by the micro broth dilution method according to the Clinical and Laboratory Standards Institute (Wayne PA, Reference Method for Broth Dilution Antifungal Susceptibility Testing of yeasts, approved Standard M27-A3, 3 rd ed; Clinical and Laboratory Standards Institute (CLSI): USA, 2008). The initial concentration of fungal suspension in RPMI 1640 medium was 3–5 × 10^3 colonies forming unit (CFU)/mL, which was added to 96-well plates. Peptides were prepared in dimethyl sulfoxide (DMSO) with an initial stored concentration of 6.4 mg/mL. Serial dilutions were made based on the CLSI M27 guide to obtaining the final concentrations ranging from 0.125 to 64 μg/mL for fluconazole and 0.25 to 128 μg/mL for peptides […]. The plates were incubated at 30 °C for 48 h. Optical density was measured at 630 nm, and background optical densities were subtracted from that of each well. The definition of MIC is the lowest concentration at which 80% of tested strains cannot grow.

C. albicans 904 = test: microbe, parasite or virus in culture
Experimental: as §1, §2, §3

C. albicans SC5314 = test: microbe, parasite or virus in culture
Experimental: as §1, §2, §3

C. auris 918 = test: microbe, parasite or virus in culture
Experimental: as §1, §2, §3

C. auris 919 = test: microbe, parasite or virus in culture
Experimental: as §1, §2, §3

C. glabrata 896 = test: microbe, parasite or virus in culture
Experimental: as §1, §2, §3

C. glabrata ATCC 1182 = test: microbe, parasite or virus in culture
Experimental: as §1, §2, §3

C. krusei ATCC 2340 = test: microbe, parasite or virus in culture
Experimental: as §1, §2, §3

[1] = system: C. parapsilosis ATCC 22010; test: microbe, parasite or virus in culture
Experimental: as §1, §2, §3

C. tropicalis 895 = test: microbe, parasite or virus in culture
Experimental: as §1, §2, §3

C. tropicalis ATCC 20026 = test: microbe, parasite or virus in culture
Experimental: as §1, §2, §3

chymotrypsin = test: Chymotrypsin digestion assay (proteolytic stability); details: chymotrypsin 10 ng/µL in PBS 50 mM, 2 mM CaCl2, pH 7.4, room temperature; 130 µL of 1 mM DMSO peptide stock + 910 µL enzyme; sampled 0, 0.5, 1.5, 2, 4.5 h; HPLC at 214 nm
Experimental: Their susceptibility toward chymotrypsin degradation was tested in pH 7.4 PBS buffer at room temperature, containing 2 mM of CaCl2, and the percentages of remaining peptides were determined by HPLC. […] The corresponding HPLC charts for the determination of peptide residues are in the Supplementary Material.
Figure 4 Proteolytic stability of Aurein1.2, Sau-1, Sau-2, Sau-5, and Sau-9. They were dissolved in chymotrypsin solution (10 ng/μL, 50 mM, containing 2 mM of CaCl2, pH = 7.4). The percentages of the remaining peptides were monitored by HPLC.
Aurein1.2, Sau-1, Sau-2, Sau-5, and Sau-9, were dissolved in dimethyl sulfoxide to prepare a reserve solution with a concentration of 1 mM. Chymotrypsin was dissolved in PBS buffer (50 mM, containing 2 mM of CaCl2, pH = 7.4) to obtain a final concentration of 10 ng/µL. Then the 130 µL peptide solutions were incubated with 910 µL of chymotrypsin solution at room temperature. Then 130 µL of digestion mixture was taken at 0, 0.5, 1.5, 2 or 4.5 h, and then quenched with 50 µL of hydrochloric acid (1 mM). High-performance liquid chromatography (HPLC) was used to detect the residues of linear peptides and stapled Aurein1.2 peptides at 214 nm at a different time.

[2] = Helicity by circular dichroism; assay type: physicochemical; details: CD, 50 μM peptide in phosphate buffer/trifluoroethanol (7:3), 20 °C, calculated on [θ]222
Experimental: We use circular dichroism (CD) spectroscopy to probe the structural changes of Aurein1.2. According to the formula for calculating the helix reported in the previous relevant literature, we calculated the helicities of Aurein1.2 and the stapled peptides.
Figure 3 CD spectra of Aurein1.2 and its analogues. The peptides were dissolved in a solution of phosphate buffer and trifluoroethanol (7:3) and reached a concentration of 50 μM. The helicities of these peptides were calculated on the [θ]222. TEXT PRINTED IN THE PICTURE: Aurein1.2: helicity: 56.6% | Sau-1: helicity: 60.2% | Sau-2: helicity: 52.5% | Sau-3: helicity: 72.3% | Sau-4: helicity: 73.5% | Sau-5: helicity: 61.0% | Sau-6: helicity: 49.9% | Sau-7: helicity: 65.0% | Sau-8: helicity: 83.1% | Sau-9: helicity: 67.8%
The linear peptide and the stapled Aurein1.2 peptides were dissolved to form a sample with a concentration of 50 μM. The solvent consists of phosphate-buffered solution and trifluoroethanol (7:3). We used a […] quartz tube to obtain CD spectra on a Jasco-715 spectrophotometer at 20 °C. The measurement parameters were set up as follows: wavelength, 190–255 nm; speed, 20 nm min^−1; step resolution, 1.0 nm. And we accumulated the data twice. All spectral data were subtracted from the background. […] The helicity of each peptide was calculated according to the equation in the literature.

Compound	Minimum inhibitory concentration (MIC) (C. albicans 901; 901, 48 h)	Minimum inhibitory concentration (MIC) (C. albicans 904; 904, 48 h)	Minimum inhibitory concentration (MIC) (C. albicans SC5314; SC5314, 48 h)	Minimum inhibitory concentration (MIC) (C. auris 918; 918, 48 h)	Minimum inhibitory concentration (MIC) (C. auris 919; 919, 48 h)	Minimum inhibitory concentration (MIC) (C. glabrata 896; 896, 48 h)	Minimum inhibitory concentration (MIC) (C. glabrata ATCC 1182; ATCC 1182, 48 h)	Minimum inhibitory concentration (MIC) (C. krusei ATCC 2340; ATCC 2340, 48 h)	Minimum inhibitory concentration (MIC) ([1]; ATCC 22010, 48 h)	Minimum inhibitory concentration (MIC) (C. tropicalis 895; 895, 48 h)	Minimum inhibitory concentration (MIC) (C. tropicalis ATCC 20026; ATCC 20026, 48 h)	proteolytic stability, remaining peptide (chymotrypsin)	further results
CC[C@H](C)[C@@H]1NC(=O)[C@@](C)(NC(=O)[C@H](CC(=O)O)NC(=O)[C@H](Cc2ccccc2)NC(=O)[C@H](CC(C)C)NC(=O)CNC(C)=O)CCCC=CCCC[C@@](C)(C(=O)N[C@@H](C)C(=O)N[C@@H](CCC(=O)O)C(=O)N[C@@H](CO)C(=O)N[C@@H](Cc2ccccc2)C(N)=O)NC(=O)[C@H](CCCCN)NC(=O)[C@H](CCCCN)NC1=O [Sau-5] (Ac-GLFD[S5]IKK[S5]AESF-NH2; staple 5-9)	>128 µg/mL	>128 µg/mL	16 µg/mL (≈ 10.4 µM)	>128 µg/mL	>128 µg/mL	>128 µg/mL	>128 µg/mL	>128 µg/mL	>128 µg/mL	16 µg/mL (≈ 10.4 µM)	>128 µg/mL	remain relatively stable over time	–
Ac-GLFDIIKKIAESF-NH2 [reference compound]	–	–	–	–	–	–	–	–	–	–	–	disintegrated almost completely by 4.5 h	Minimum inhibitory concentration (MIC) (C. albicans 901; C. albicans 901, fluconazole-resistant clinical isolate, RPMI 1640, 30 °C, 48 h, OD 630 nm, 80% inhibition): >128 µg/mL; Minimum inhibitory concentration (MIC) (C. albicans 904; C. albicans 904, RPMI 1640, 30 °C, 48 h, OD 630 nm, 80% inhibition): >128 µg/mL; Minimum inhibitory concentration (MIC) (C. albicans SC5314; C. albicans SC5314, RPMI 1640, 3–5 × 10^3 CFU/mL, 30 °C, 48 h, OD 630 nm, 80% inhibition): >64 µg/mL; Minimum inhibitory concentration (MIC) (C. auris 918; C. auris clinical isolate 918, RPMI 1640, 30 °C, 48 h, OD 630 nm, 80% inhibition): >128 µg/mL; Minimum inhibitory concentration (MIC) (C. auris 919; C. auris clinical isolate 919, RPMI 1640, 30 °C, 48 h, OD 630 nm, 80% inhibition): >128 µg/mL; Minimum inhibitory concentration (MIC) (C. glabrata 896; C. glabrata clinical isolate 896, RPMI 1640, 30 °C, 48 h, OD 630 nm, 80% inhibition): >128 µg/mL; Minimum inhibitory concentration (MIC) (C. glabrata ATCC 1182; C. glabrata ATCC 1182, RPMI 1640, 30 °C, 48 h, OD 630 nm, 80% inhibition): >128 µg/mL; Minimum inhibitory concentration (MIC) (C. krusei ATCC 2340; C. krusei ATCC 2340, RPMI 1640, 30 °C, 48 h, OD 630 nm, 80% inhibition): >128 µg/mL; Minimum inhibitory concentration (MIC) ([1]; C. parapsilosis ATCC 22010, RPMI 1640, 30 °C, 48 h, OD 630 nm, 80% inhibition): >128 µg/mL; Minimum inhibitory concentration (MIC) (C. tropicalis 895; C. tropicalis 895, fluconazole-resistant clinical isolate, RPMI 1640, 30 °C, 48 h, OD 630 nm, 80% inhibition): >128 µg/mL; Minimum inhibitory concentration (MIC) (C. tropicalis ATCC 20026; C. tropicalis ATCC 20026, RPMI 1640, 30 °C, 48 h, OD 630 nm, 80% inhibition): >128 µg/mL; helicity [2]: 56.6%
CC[C@H](C)[C@H](NC(=O)[C@H](CC(=O)O)NC(=O)[C@H](Cc1ccccc1)NC(=O)[C@H](CC(C)C)NC(=O)CNC(C)=O)C(=O)N[C@H](C(=O)N[C@@H](CCCCN)C(=O)N[C@@H](CCCCN)C(=O)N[C@@]1(C)CCCC=CCCC[C@@](C)(C(N)=O)NC(=O)[C@H](CO)NC(=O)[C@H](CCC(=O)O)NC(=O)[C@H](C)NC1=O)[C@@H](C)CC [Sau-9] (Ac-GLFDIIKK[S5]AES[S5]-NH2; staple 9-13)	>128 µg/mL	>128 µg/mL	>64 µg/mL	>128 µg/mL	>128 µg/mL	>128 µg/mL	>128 µg/mL	>128 µg/mL	>128 µg/mL	32 µg/mL (≈ 21.2 µM)	>128 µg/mL	–	–
CC[C@H](C)[C@@H]1NC(=O)[C@H]([C@@H](C)CC)NC(=O)[C@@](C)(NC(=O)[C@H](Cc2ccccc2)NC(=O)[C@H](CC(C)C)NC(=O)CNC(C)=O)CCCC=CCCC[C@@](C)(C(=O)N[C@H](C(=O)N[C@@H](C)C(=O)N[C@@H](CCC(=O)O)C(=O)N[C@@H](CO)C(=O)N[C@@H](Cc2ccccc2)C(N)=O)[C@@H](C)CC)NC(=O)[C@H](CCCCN)NC1=O [Sau-4] (Ac-GLF[S5]IIK[S5]IAESF-NH2; staple 4-8)	>128 µg/mL	>128 µg/mL	>64 µg/mL	>128 µg/mL	>128 µg/mL	>128 µg/mL	>128 µg/mL	>128 µg/mL	>128 µg/mL	>128 µg/mL	>128 µg/mL	–	–
